Experimental findings from patent publication US10758536B2, “Method for treating shingles with N-methanocarbathymidine (N-MCT)” (priority 2015, dated 2020) are described below.

In brackets after ≈: the same amount, converted by molar mass. Entries after “also recorded” stand apart in the source; their conditions may differ.

Usually EC50 stands for the concentration giving half of the maximal effect. Low values mean a more potent agent, high ones a less potent agent.

A short description of data set [1]: Mouse weights and tolerability.
Description: CB.17 scid/beige male mice were implanted subcutaneously with human fetal skin (the same type of specimens used for the skin organ culture assay). After 3 weeks engraftment period, the skin implants were inoculated with VZV-BAC-Luc. The mice were divided into 5 groups of 12 mice: vehicle, positive control drug, N-MCT low dose, medium dose, and high dose (see FIGS. 3A, 3B, 4A and 4B). Treatment began approximately 2 hours after the inoculation surgery and was administered by oral gavage. Treatment continued twice daily (8:30 am and 8:30 pm) on Days 1-7. The mice were scanned in the IVIS-200 instrument daily from Day 1-8. The mice were weighed before the start of the study and daily during the treatment phase.
CB.17 scid/beige male mice were implanted subcutaneously with human fetal skin (the same type of specimens used for the skin organ culture assay). After 3 weeks engraftment period, the skin implants were inoculated with VZV-BAC-Luc (5×10^3 pfu/implant). The mice were divided into 5 groups of 12 mice: vehicle, positive control drug cidofovir delayed to Days 4-11, N-MCT 50 mg/kg Days 0-7, Days 4-11, or Days 7-13 (see Table 6 below). Treatment began approximately 2 hours after the inoculation surgery and was administered by oral gavage. Treatment continued twice daily (8:30 am and 8:30 pm) on schedule. […] The mice were scanned in the IVIS-200 instrument daily from Day 1-14. The mice were weighed before the start of the study and daily during the treatment phase. The antiviral effects of N-MCT were determined by assessing the VZV growth kinetics and rates (Log10 Total Flux/day).
The animals used in this experiment were SCID-beige mice purchased from Taconic (age 6-7 weeks).
Data set [2] concerns VZV. Briefly: EC50 determination in HFFs, VZV-BAC-Luc bioluminescence. Type of data set: cell-based, varicella-zoster virus. Here is the method:
Human foreskin fibroblasts (HFFs) (CCD-1137Sk; American Type Culture Collection), used prior to passage 20 were grown in Eagle minimum essential medium with Earle's salts and L-glutamine (HyClone Laboratories), supplemented with 10% heat-inactivated fetal bovine serum (Benchmark FBS; Gemini Bio Products), penicillin-streptomycin (5000 IU/mL), amphotericin B (250 µg/mL), and nonessential amino acids (all Mediatech). VZV-BAC-Luc (Zhang et al., 2007), derived from the Parental Oka (POka, Accession number: AB097933) strain was propagated in HFFs. To prepare the virus for inoculation, VZV-infected HFFs were trypsinized, then washed and resuspended in TCM, and used immediately for direct injection. Each tissue was injected twice with 30 μL of the cell suspension using a 1 cc syringe fitted with a 27-gauge needle attached to a volumetric stepper (Tridak). […]
The first question we addressed was whether N-MCT was effective against VZV in cultured cells. A standard EC50 evaluation was performed using the VZV-BAC-Luc strain and virus yield was measured by bioluminescence. […]
Cells were treated for 48 hpi (hour post infection) and the medium containing the drug was changed after 24 h. VZV spread was measured by bioluminescence imaging at 48 hpi and expressed as Total Flux (photons/sec/cm^2/steradian). […]

The test system of data set [3] is VZV. As to the kind of experiment: Skin organ culture assay, drug in medium. Type of data set: cell-based, varicella-zoster virus. As for the experimental part: Human foreskin fibroblasts (HFFs) (CCD-1137Sk; American Type Culture Collection), used prior to passage 20 were grown in Eagle minimum essential medium with Earle's salts and L-glutamine (HyClone Laboratories), supplemented with 10% heat-inactivated fetal bovine serum (Benchmark FBS; Gemini Bio Products), penicillin-streptomycin (5000 IU/mL), amphotericin B (250 µg/mL), and nonessential amino acids (all Mediatech). VZV-BAC-Luc (Zhang et al., 2007), derived from the Parental Oka (POka, Accession number: AB097933) strain was propagated in HFFs. To prepare the virus for inoculation, VZV-infected HFFs were trypsinized, then washed and resuspended in TCM, and used immediately for direct injection. Each tissue was injected twice with 30 μL of the cell suspension using a 1 cc syringe fitted with a 27-gauge needle attached to a volumetric stepper (Tridak). The needle was lightly dragged across the tissue approximately 5 times to scarify the surface to increase infection. Tissues were incubated at 37° C. for 3 h to allow the virus to adhere, and then placed individually on NetWells that had contact with 1.0 mL of tissue culture medium. The cell-associated VZV inoculum was titered on MeWo cells (Taylor and Moffat, 2005) and was typically 1.5×10^6 pfu/mL, which is approximately 9×10^4 pfu/tissue.
In skin organ culture, higher concentrations of N-MCT were needed to reduce VZV spread; virus yield was reduced ˜100-fold when [N-MCT] was greater than 10 μg/mL.

Data set [4] relates to VZV. Briefly: Delayed N-MCT treatment in SCID-Hu mice. It counts as in vivo, varicella-zoster virus. Particulars: 50 mg/kg p.o. BID; treatment delayed 3 or 7 days after VZV infection. As for the experimental part:
Statistical analysis: Data were analyzed using Student's t test or one-way ANOVA and Dunnett's Multiple Comparison post hoc tests. Calculations were made using GraphPad Prism 5.02 for Windows (GraphPad Software, San Diego, Calif., www.graphpad.com). A p<0.05 was considered statistically significant.

For data set [5], the system named is VZV. As to the kind of experiment: Skin organ culture topical Assay 3: vehicle comparison. It counts as cell-based, varicella-zoster virus. Here is the method: Place 36 mL deionized sterile water into small beaker with stir bar. Slowly waft 900 mg of carbopol (980 NF, Lot # CCONLCC013, Lubrizol Corp) into water, avoiding clumps. Add equal volume N-MCT in 20% hydroxypropyl-β-cyclodextrin (Sigma) at 2× to reach the desired concentration. Add 2 drops NaOH (18% solution) to attain a pH near 5.0. Store at 4° C. The 0.5% cidofovir gel was made in a similar manner except that cidofovir was dissolved in water. The DMSO vehicle was prepared by adding a 2% DMSO solution in water to the carbopol suspension at a 1:1 ratio. Hydroxypropyl-β-cyclodextrin (HPBCD) was prepared by mixing 5.0 g with 20 mL sterile water. Stock solution of N-MCT was prepared by dissolving 90 mg N-MCT in 9 mL 20% HPBCD and sonicating for 1 min.
This assay compared two vehicles, 1% DMSO and 10% hydroxypropyl-β-cyclodextrin (HPBCD) in carbopol gel, and 0.5% N-MCT in either vehicle. Refer to Assay #3 in Table 4 above. Each group was treated on Days 1-4 and scanned on Day 5, which is the typical assay protocol. The skin specimens were then cultured without drug or vehicle for another 6 days (scans on Day 7 and Day 11) to observe virus rebound. VZV yield was reduced in both Vehicle groups during the treatment phase, and then rebounded. This was likely due to the effects of the slightly acidic carbopol gel. There was little difference between the two vehicles. […] Importantly, there was no rebound in the groups treated with N-MCT. In fact, VZV yield continued to decrease after the treatment stopped.

The mark [6] stands for this setting: 50 mg/kg oral gavage, delayed-treatment study.
Where [7] appears, read: all doses, dose-range study in mice.

For `Cc1cn([C@]23C[C@H](O)[C@@H](CO)[C@@H]2C3)c(=O)[nH]c1=O` [N-MCT, N-methanocarbathymidine], the tolerability result in data set [1] (setting [6]) is reported as “well tolerated; also recorded: well-tolerated”; in data set [1] (setting [7]), “well tolerated”. For the same compound, the values for the weight loss entry in data set [1] (setting [6]) and in data set [1] (setting [7]) were “minimal weight loss” and “did not cause excessive weight loss”, respectively. Besides, the EC50 is 0.06 µg/mL (≈ 0.238 µM) in the data set with VZV [2] (Human alphaherpesvirus 3, Fibroblast, human foreskin fibroblasts, VZV-BAC-Luc, bioluminescence at 48 hpi) and 0.06 µg/mL (≈ 0.238 µM) in the data set with VZV [2] (Human alphaherpesvirus 3, cultured cells). For the same compound, in the data set on VZV [3] (FIG. 2), the “VZV growth in skin organ culture” value was “prevents VZV growth”. This compound also had a virus yield reduction in the data set with VZV [3] ([N-MCT] greater than 10 μg/mL, skin organ culture) of around 100 fold. Further, the “concentrations at which N-MCT prevents VZV spread in human skin explants” value in the data set on VZV [3] (human skin explants, drug in medium) was above 10 µg/mL. Besides, in the data set on VZV [4], the “effectiveness in vivo when treatment is delayed” value is given as “effective; also recorded: can be delayed up to one week after infection”. For the same compound, the VZV yield result in the data set with VZV [5] (0.5% N-MCT in 1% DMSO or 10% HPBCD carbopol gel, Days 1-4) is recorded as “substantial decrease”. Also, the “cyclodextrin preparation compared with DMSO prep” value with VZV [5] (0.5% N-MCT in 10% HPBCD vs 1% DMSO carbopol) is on record as “slightly more effective”. Moreover, in the data set on VZV [5] (scans on Day 7 and Day 11, no drug after Day 5), the “VZV rebound after treatment stopped” value was “no rebound”.
